Experimental data published in article PMC11345839, “Synthesis and Characterization of Folic Acid-Conjugated Terbium Complexes as Luminescent Probes for Targeting Folate Receptor-Expressing Cells” (Journal of Medicinal Chemistry, 2024).

Assays:
[1] = test system: FR; conditions: cited from earlier work
[2] = target: T1, FRα (Homo sapiens, UniProt P15328); assay: Folate-FITC binding competition assay (flow cytometry), FRα on KB cells; conditions: competition with 10 nM Folate-FITC
T1 construct: Human KB nasopharyngeal epidermoid carcinoma cells (expressing FRα); endogenous in cells; host or cells: KB nasopharyngeal epidermoid carcinoma cells
Experimental: (§1) To assess the binding affinity of the terbium-folate conjugates, a flow cytometry binding competition assay was carried out with folate-FITC and increasing concentrations of terbium-folate conjugates with FRα and FRβ expressing cells. The affinity of FRα and FRβ for the terbium-folate conjugates is expressed relative to folic acid, which is given the value of 1.
(§2) Human KB nasopharyngeal epidermoid carcinoma cells (expressing FRα) and FRβ-transfected Chinese Hamster Ovary cells were cultured in Folate-free RPMI medium (Thermo Fisher Scientific) supplemented with 20% Newborn Calf Serum, 1% antibiotics (penicillin and streptomycin) and 25 mM HEPES, in a humidified 37 °C incubator with 5% CO2 as described by Van der Heijden et al.[4] The culture medium was refreshed every 3 days. Stock solutions (1 mM) of Tb-folate conjugates were made by dissolving in 50 mM NaHCO3 and stored at −20 °C until use. […] Flow cytometry data was analyzed in FlowJo v10.8 Software (BD Life Sciences). […] Data from 6–9 replicative experiments were analyzed. […]
(§3) Considering FRα and FRβ share the same affinity for folic acid and Folate-FITC, relative affinities for Tb-folate compounds were expressed relative to folic acid.[59],[60] The relative affinity was calculated using [drawing 1] […]

[3] = target: T2, FRβ (Homo sapiens, UniProt P14207); assay: Folate-FITC binding competition assay (flow cytometry), FRβ on CHO/FRβ transfected cells; conditions: competition with 1 nM Folate-FITC
T2 construct: expressed in transfected cells; host or cells: Chinese Hamster Ovary (CHO) cells
Experimental: as §1, §2, §3

[4] = design: method as in PMID 30296376; conditions: λex = 776 nm; cited from earlier work
[5] = design: method as in PMID 30296376; conditions: λex = 776 nm, λem = 793 nm; cited from earlier work
[6] = UV-vis absorption (molar extinction coefficient); assay type: physicochemical; conditions: H2O, λmax = 281 nm, mixture of regioisomers
Text: The absorption spectrum of folic acid is characterized by two absorption bands in the region of 250–300 and 300–400 nm, which correspond to the π → π* transition for the pterin and the n → π* transition for the p-amino benzoyl acid moieties respectively.[46] […] Differences are observed for TbL,^4 which is red-shifted and broadened due to the overlap with the acetophenone moiety; similar absorbance spectra of acetophenone-folate complexes have been reported by Quici et al.[16]
UV–vis spectra were recorded on a Cary60 UV–vis spectrophotometer fitted with a xenon source lamp or on a Jasco V-770 UV–visible/NIR spectrophotometer.

T1 sequence (P15328 25-257): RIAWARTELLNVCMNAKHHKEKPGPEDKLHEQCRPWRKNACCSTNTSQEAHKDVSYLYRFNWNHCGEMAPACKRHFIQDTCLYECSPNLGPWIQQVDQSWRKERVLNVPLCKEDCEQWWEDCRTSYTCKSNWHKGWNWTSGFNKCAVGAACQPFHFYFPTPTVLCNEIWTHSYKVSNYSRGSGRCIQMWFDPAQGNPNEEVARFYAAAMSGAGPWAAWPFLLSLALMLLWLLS
T2 sequence (P14207 17-255): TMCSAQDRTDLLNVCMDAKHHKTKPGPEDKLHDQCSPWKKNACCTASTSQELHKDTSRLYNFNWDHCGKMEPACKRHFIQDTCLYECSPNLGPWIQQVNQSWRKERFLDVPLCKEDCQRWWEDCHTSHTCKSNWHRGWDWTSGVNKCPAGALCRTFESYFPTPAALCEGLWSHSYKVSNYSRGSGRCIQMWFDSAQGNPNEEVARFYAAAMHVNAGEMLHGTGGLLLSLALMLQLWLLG

CN1c2c(nc(N)[nH]c2=O)NCC1CNc1ccc(C(=O)N[C@@H](CCC(=O)O)C(=O)O)cc1 (stereo partly drawn) [5-methyltetrahydrofolate]
FR affinity, fold lower than folic acid [1]: approximately 10 fold

Nc1nc(=O)c2nc(CNc3ccc(C(=O)N[C@@H](CCC(=O)O)C(=O)O)cc3)cnc2[nH]1 [ChEBI_27470, folic acid]
relative binding affinity to FRα (folic acid = 1) [2]: 1 | relative binding affinity to FRβ (folic acid = 1) [3]: 1

CC1(C)C(/C=C/C2=C(Oc3ccc(C[C@H](NC(=O)c4ccc(NCc5cnc6nc(N)[nH]c(=O)c6n5)cc4)C(=O)[O-])cc3)C(=C/C=C3\N(CCCCS(=O)(=O)[O-])c4ccc(S(=O)(=O)[O-])cc4C3(C)C)/CCC2)=[N+](CCCCS(=O)(=O)[O-])c2ccc(S(=O)(=O)[O-])cc21.[H+].[H+].[H+].[H+] [OTL38]
ε (molar extinction coefficient) [4]: 272 000 M^–1 cm^–1 | Φ (quantum yield) [5]: 15.1%

Folate-PEG6-DOTA [L^1αγ]
ε (molar extinction coefficient) of free ligand [6]: 20013 M^–1 cm^–1
